{
  "source": "paper PMC9699003",
  "about": "“Arene Variation of Highly Cytotoxic Tridentate Naphthoquinone-Based Ruthenium(II) Complexes and In-Depth In Vitro Studies” (Pharmaceutics, 2022)",
  "key": {"SW480 cells [1]": {"system": "SW480 cells", "assay": "Colony formation assay", "type": "cell-based, human", "details": "SW480, 11 days, relative to untreated control", "procedure": "For the colony formation assay, SW480 cells were seeded at a density of 350 cells/2 mL into each well of 6-well plates (CytoOne, tissue culture treated) and left to adhere for 24 h. To determine the long-term effects of the test compounds, the cells were exposed to them for 11 days at 37 °C and 5% CO2. After incubation, the wells were gently washed with 1 mL cold PBS and the colonies were fixed with 1 mL cold (4 °C) 100% methanol (Thermo Fisher, Waltham, MA, USA) for 30 min at 4 °C and washed with 1 mL PBS again. The fixed colonies were stained with 1 mL of 0.5% w/v crystal violet (Sigma-Aldrich) in methanol for 2 min and the plates were washed under tap water. After drying the plates, images of the wells were captured, and colonies were counted with the colony counting function of Fusion Fx7 software (Vilber Lourmat, Collégien, France). Results were normalized to untreated controls. Data are averaged from at least three independent experiments."}, "CH1/PA-1 cells": {"system": "CH1/PA-1 cells", "assay": "Cell cycle distribution (PI staining, flow cytometry)", "type": "cell-based, human", "details": "CH1/PA-1, 24 h", "procedure": "(§1) For the flow-cytometric determination of cell cycle distribution, CH1/PA-1 (8 × 10^4 cells/well) and SW480 (1.2 × 10^5 cells/well) cells were seeded into 12-well plates (CytoOne, tissue culture treated) in 1 mL supplemented MEM. In the first 24 h, the cells were allowed to settle and resume exponential growth. […] Gemcitabine (Sigma-Aldrich, 0.01 and 0.05 µM) and etoposide (Sigma-Aldrich, 0.25, 0.5 and 1 µM) were used as positive controls. After removal of the treatment medium, cells were washed with 1 mL PBS and trypsinized. Cells were collected in Eppendorf tubes and centrifuged (300 g, 3 min), and the supernatant was discarded. In the following step, cells were washed with 1 mL PBS and resuspended in 500 µL PI/HFS buffer (0.1% v/v Triton X-100, 0.1% w/v sodium citrate, in PBS) containing 25 µg/mL propidium iodide (PI, 1.0 mg/mL, Sigma-Aldrich). The staining was carried out overnight at 4 °C in the dark, and 200 µL of the cell suspension was loaded into 96-well round bottom plates (Falcon). Samples were measured with a Millipore Guava easyCyte 8HT flow cytometer with GuavaSoft™ software in the InCyte-modus, and 10,000 events/sample were detected. Data were analyzed with FlowJo software v 10.8.1 (Tree Star, Ashland, OR, USA) using Watson algorithm. Percentages of cells in the three cell cycle phases (G1/G0, S and G2/M) were calculated by integrating the resulting histograms of fluorescence signals (Figures S29 and S30). Experiments were repeated at least three times. For statistical evaluation, an unpaired t-test with Welch’s correction was performed by using GraphPad PRISM software."}, "SW480 cells [2]": {"system": "SW480 cells", "assay": "Cell cycle distribution (PI staining, flow cytometry)", "type": "cell-based, human", "details": "SW480, 24 h", "procedure": "as §1"}, "pUC19 plasmid": {"system": "pUC19 plasmid", "assay": "DNA interaction assay (dsDNA plasmid, agarose gel electrophoresis)", "type": "biochemical", "details": "50 µM", "procedure": "The incubation was performed at 37 °C for different time intervals (15 min to 6 h) with continuous shaking. Additionally, 4 µL aliquots of a 6× DNA loading dye (Thermo Fisher) were added to the 20 µL reaction solution, and the DNA samples were separated in a 1% agarose gel in 1 × Tris-Borate-EDTA (TBE) buffer. Electrophoresis was initiated at 60 V for 5 min and continued at 120 V for 90 min in 1 × TBE buffer. For visualization of the DNA modification degree, the agarose gel was stained with ethidium bromide (EtBr) in 1 × TBE (0.75 µg/mL) for 20 min."}, "NQO1 (SW480 cells)": {"biological_target": "T1, NQO1 (SW480 cells) (Homo sapiens, UniProt P15559)", "T1 construct": "impact on NQO1 activity in SW480 (left panel) and CH1/PA-1 (right panel) cell extracts after treatment; endogenous in cells; host or cells: SW480 colon carcinoma cells (ATCC)", "T1 sequence (P15559 whole entry)": "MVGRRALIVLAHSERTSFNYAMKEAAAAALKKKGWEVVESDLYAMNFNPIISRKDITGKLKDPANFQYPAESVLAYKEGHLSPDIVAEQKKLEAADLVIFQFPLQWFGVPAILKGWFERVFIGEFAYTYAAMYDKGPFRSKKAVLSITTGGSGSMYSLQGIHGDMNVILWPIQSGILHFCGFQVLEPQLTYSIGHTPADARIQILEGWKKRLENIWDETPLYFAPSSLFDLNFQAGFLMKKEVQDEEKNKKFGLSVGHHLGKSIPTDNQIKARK", "assay": "NQO1 activity assay in cell extracts after treatment", "type": "cell-based", "details": "SW480, 24 h treatment", "procedure": "To determine NQO1 activity, SW480 and CH1/PA-1 cells were seeded into 6-well plates in densities of 2 × 10^5 cells/well in 2 mL supplemented MEM. […] The test substances were dissolved in DMSO/medium. To exclude that assay validity was compromised by the use of DMSO, cells treated with DMSO alone (at concentrations corresponding to those in substance solutions) were measured in parallel. After 24 h drug exposure, the medium was aspirated, and the cells were gently washed twice with PBS. The further steps were performed following the manual instructions of the NQO1 activity assay kit (ab184867, abcam, Cambridge, UK). Protease inhibitor phenylmethylsulfonyl fluoride (PMSF, Merck, Darmstadt, Germany) and phosphatase inhibitor PhosSTOP^TM (Roche, Basel, Switzerland) were applied. For determining the protein concentration, the Micro BCA^TM protein assay (prod # 23235, Thermo Scientific) kit was used. For NQO1 activity determination, 100 µg/mL of total protein was loaded. The development of yellow color was monitored for 5 min in 20-sec intervals with a microplate reader (BioTek ELx808) at 450 nm. The measured data were evaluated according to the instructions of the NQO1 activity assay kit: “NQO1 activity was calculated by subtracting the OD value with Inhibitor from the one without Inhibitor. The activity is expressed as the change in absorbance per minute per amount of sample loaded into the well” [30]. Data are expressed as rates of increase of mean absorbance ± SDs from three independent experiments."}},
  "data": [
    {"smiles": "CC1=C([O-])C([O-])(n2cccn2)c2ccccc2C1=O.[Ru+2].c1ccc2c(c1)CCC2", "note": "(racemic) [Compound 4]", "values": [
      {"measurement": "Number of colonies", "setting": "SW480 cells [1]; 0.31 µM", "result": "22 ± 5", "unit": "%"},
      {"measurement": "Number of colonies", "setting": "SW480 cells [1]; 0.63 µM", "result": "5.1 ± 2.1", "unit": "%"},
      {"measurement": "Number of colonies", "setting": "SW480 cells [1]; 1.25 µM", "result": "0.82 ± 0.85", "unit": "%"},
      {"measurement": "Cells in G1/G0 phase", "setting": "CH1/PA-1 cells; 50 µM", "result": "25.1 ± 4.7", "unit": "%"},
      {"measurement": "Cells in G2/M phase", "setting": "CH1/PA-1 cells; 50 µM", "result": "39.8 ± 2.9", "unit": "%"},
      {"measurement": "Cells in S phase", "setting": "CH1/PA-1 cells; 50 µM", "result": "38.4 ± 1.7", "unit": "%"},
      {"measurement": "Cells in G1/G0 phase", "setting": "CH1/PA-1 cells; 100 µM", "result": "23.9 ± 4.7", "unit": "%"},
      {"measurement": "Cells in G2/M phase", "setting": "CH1/PA-1 cells; 100 µM", "result": "42.2 ± 4.7", "unit": "%"},
      {"measurement": "Cells in S phase", "setting": "CH1/PA-1 cells; 100 µM", "result": "38.3 ± 2.3", "unit": "%"},
      {"measurement": "Cells in G1/G0 phase", "setting": "CH1/PA-1 cells; 200 µM", "result": "24.5 ± 3.8", "unit": "%"},
      {"measurement": "Cells in G2/M phase", "setting": "CH1/PA-1 cells; 200 µM", "result": "40.0 ± 3.8", "unit": "%"},
      {"measurement": "Cells in S phase", "setting": "CH1/PA-1 cells; 200 µM", "result": "39.1 ± 3.9", "unit": "%"},
      {"measurement": "Cells in G1/G0 phase", "setting": "SW480 cells [2]; 0.31 µM", "result": "24.7 ± 9.2", "unit": "%"},
      {"measurement": "Cells in G2/M phase", "setting": "SW480 cells [2]; 0.31 µM", "result": "36.1 ± 3.0", "unit": "%"},
      {"measurement": "Cells in S phase", "setting": "SW480 cells [2]; 0.31 µM", "result": "42.1 ± 7.1", "unit": "%"},
      {"measurement": "Cells in G1/G0 phase", "setting": "SW480 cells [2]; 0.63 µM", "result": "19.0 ± 4.6", "unit": "%"},
      {"measurement": "Cells in G2/M phase", "setting": "SW480 cells [2]; 0.63 µM", "result": "45.8 ± 4.2", "unit": "%"},
      {"measurement": "Cells in S phase", "setting": "SW480 cells [2]; 0.63 µM", "result": "42.0 ± 3.5", "unit": "%"},
      {"measurement": "Cells in G1/G0 phase", "setting": "SW480 cells [2]; 1.25 µM", "result": "20.7 ± 5.3", "unit": "%"},
      {"measurement": "Cells in G2/M phase", "setting": "SW480 cells [2]; 1.25 µM", "result": "25.0 ± 5.8", "unit": "%"},
      {"measurement": "Cells in S phase", "setting": "SW480 cells [2]; 1.25 µM", "result": "57.1 ± 4.5", "unit": "%"},
      {"measurement": "open circular (oc) form of pUC19 (single-strand breaks)", "setting": "pUC19 plasmid; 37 °C, after 6 h of incubation, control after 6 h 3.6 ± 0.7%", "result": "12.1 ± 1.9", "unit": "%"},
      {"measurement": "Effect on NQO1 activity (in words)", "setting": "NQO1 (SW480 cells); 10 µM", "result": "moderate suppression of enzyme activity"}
    ]},
    {"smiles": "CC1=C([O-])C([O-])(n2cccn2)c2ccccc2C1=O.[Ru+2].c1ccc(-c2ccccc2)cc1", "note": "(racemic) [Compound 5]", "values": [
      {"measurement": "Number of colonies", "setting": "SW480 cells [1]; 0.039 µM", "result": "19 ± 7", "unit": "%"},
      {"measurement": "Number of colonies", "setting": "SW480 cells [1]; 0.078 µM", "result": "4.0 ± 2.0", "unit": "%"},
      {"measurement": "Number of colonies", "setting": "SW480 cells [1]; 0.16 µM", "result": "0.22 ± 0.48", "unit": "%"},
      {"measurement": "Cells in G1/G0 phase", "setting": "CH1/PA-1 cells; 12.5 µM", "result": "20.1 ± 5.0", "unit": "%"},
      {"measurement": "Cells in G2/M phase", "setting": "CH1/PA-1 cells; 12.5 µM", "result": "39.1 ± 5.4", "unit": "%"},
      {"measurement": "Cells in S phase", "setting": "CH1/PA-1 cells; 12.5 µM", "result": "43.1 ± 6.3", "unit": "%"},
      {"measurement": "Cells in G1/G0 phase", "setting": "CH1/PA-1 cells; 25 µM", "result": "19.2 ± 4.8", "unit": "%"},
      {"measurement": "Cells in G2/M phase", "setting": "CH1/PA-1 cells; 25 µM", "result": "46.7 ± 1.9", "unit": "%"},
      {"measurement": "Cells in S phase", "setting": "CH1/PA-1 cells; 25 µM", "result": "38.0 ± 4.0", "unit": "%"},
      {"measurement": "Cells in G1/G0 phase", "setting": "CH1/PA-1 cells; 50 µM", "result": "17.5 ± 1.8", "unit": "%"},
      {"measurement": "Cells in G2/M phase", "setting": "CH1/PA-1 cells; 50 µM", "result": "46.8 ± 1.8", "unit": "%"},
      {"measurement": "Cells in S phase", "setting": "CH1/PA-1 cells; 50 µM", "result": "39.3 ± 1.4", "unit": "%"},
      {"measurement": "Cells in G1/G0 phase", "setting": "SW480 cells [2]; 0.039 µM", "result": "32.3 ± 12.9", "unit": "%"},
      {"measurement": "Cells in G2/M phase", "setting": "SW480 cells [2]; 0.039 µM", "result": "30.5 ± 6.2", "unit": "%"},
      {"measurement": "Cells in S phase", "setting": "SW480 cells [2]; 0.039 µM", "result": "38.8 ± 7.2", "unit": "%"},
      {"measurement": "Cells in G1/G0 phase", "setting": "SW480 cells [2]; 0.078 µM", "result": "19.5 ± 4.3", "unit": "%"},
      {"measurement": "Cells in G2/M phase", "setting": "SW480 cells [2]; 0.078 µM", "result": "35.9 ± 3.5", "unit": "%"},
      {"measurement": "Cells in S phase", "setting": "SW480 cells [2]; 0.078 µM", "result": "46.9 ± 7.7", "unit": "%"},
      {"measurement": "Cells in G1/G0 phase", "setting": "SW480 cells [2]; 0.16 µM", "result": "15.5 ± 1.3", "unit": "%"},
      {"measurement": "Cells in G2/M phase", "setting": "SW480 cells [2]; 0.16 µM", "result": "27.4 ± 1.3", "unit": "%"},
      {"measurement": "Cells in S phase", "setting": "SW480 cells [2]; 0.16 µM", "result": "57.1 ± 0.1", "unit": "%"},
      {"measurement": "Influence on pUC19 (in words)", "setting": "pUC19 plasmid; up to 6 h", "result": "only a minor influence on pUC19"},
      {"measurement": "Effect on NQO1 activity (in words)", "setting": "NQO1 (SW480 cells); 0.1 µM and 1 µM, compared to untreated control", "result": "negligible effects"},
      {"measurement": "Effect on NQO1 activity (in words)", "setting": "NQO1 (SW480 cells); 10 µM", "result": "lowered NQO1 activity tremendously"}
    ]}
  ]
}
